The record followed here is patent US5948406A, “Immunogens, antibodies formed therefrom, and coating antigens useful in a diacylhydrazine immunoassay method” (Rohm and Haas Company, priority 1997, dated 1999).

For test [1], the target named is Protein A purified IgG (rabbit antibodies to diacyl hydrazines). Description: Indirect immunoassay (inhibition of purified IgG binding to RH2703-BSA coating antigen). Conditions: indirect assay; for IC50: RH2703-BSA coating antigen, absorbance at 410 nm; for Cross reactivity: IC50 of RH5992 / IC50 of analog x 100. An excerpt: (§1) As used herein the term "IC50 " is defined as the concentration of the inhibitor required to reduce the absorbance to one-half the absorbance measured when no inhibitor was present. This determination is accomplished by plotting the percent (%) activity remaining versus the concentration of the inhibitor where the percent (%) activity remaining is given by:
(§2) % activity=(Ao -Ai /Ao)×100
(§3) where Ao is the measured absorbance when no inhibitor is present and Ai is the measured absorbance at the i^th concentration of inhibitor. The percent inhibition is then given by the relationship 100-(% activity).
The percent cross reactivity was derived by the equation: […]
where IC50,5992 is the IC50 concentration for RH5992 as determined above and IC50,analog is the IC50 concentration of the analog, i.e., RH2703, RH2651, and RH0345.
(§4) Sensitivity in ng is calculated from the concentration of the inhibitor determined from regression analysis of the standard deviations of the replicate analyses of the standard concentrations as described in the equation: […]
(§5) where S is the sensitivity in ng, Yint is the Y-intercept of the regression line from the standard deviations of the replicate analyses in absorbance units, m is the slope of the regression line in absorbance units per ng/ml and V is the volume of sample applied to the microtiter plate in ml.
RH2703-BSA was used as the coating antigen. The concentration required to give a readable response (0.3-0.5 absorbance units @ 410 nm) in the presence of the minimum quantity of antigen (RH2703) was optimized in the presence of a constant amount of protein A purified IgG (10 μl of a 20 μg/ml solution, 100 ng/well) by a checkerboard type assay (see Voller et al, Bull of World Health Organization, 53, 35 (1976)). The concentration of the Protein A purified IgG had been previously optimized in the presence of a constant amount of coating antigen (RH2703-BSA, 100 μl of a 10 μg/ml solution) to give a readable response to the minimum amount of RH5992.
Antibody concentration was optimized to be approximately 20 μg/ml (100 ng per micro well) and the coating antigen was optimized to be 25 ng/ml or 2.5 ng per micro well. When converted to a molar basis and assuming a hapten/protein binding ratio of 55, the hapten is in a three-fold molar excess of the IgG added.
The percent inhibition for RH2703, RH2651, RH5992, RH0345 and RH2485 were determined to the protein IgG in the presence of the optimized concentration of RH2703-BSA coating antigen. Each test substance was assayed at seven concentrations ranging from no test substance 0 ng/ml to 1000 ng/ml. The assay at each concentration was replicated seven times. Antigen negative and antibody negative wells provided negative controls while KLH/anti-KLH wells were used as positive controls.
Serial dilutions of the test substance stock solutions were made with coating buffer containing 0.1% TWEEN 20 polysorbate to give 1000 ng/ml, 100 ng/ml, 10 ng/ml, 1 ng/ml, 0.1 ng/ml, and 0.01 ng/ml assay concentrations. Coating buffer w/0.1% TWEEN 20 polysorbate was used as the 0 ng/ml assay concentration. The test substance assay concentrations (190 μl each) were incubated with 10 μl of the protein A IgG ([…]) for one hour at room temperature. After the incubation period, 100 μl of the test substance-IgG mixture was transferred to the appropriate microtiter well. The microtiter wells had been previously coated with the optimized concentration of RH2703-BSA and the excess protein binding sites were blocked with 0.3 ml of a 1% BSA solution in coating buffer. The plates were incubated for an additional hour at room temperature.
After the second incubation the plates were washed and goat, anti-rabbit immunoglobulin conjugated to alkaline phosphatase (0.6 mg reconstituted with 1 ml 50% glycerol and subsequently diluted with 1:5000 with blocking solution Pierce Chemical Co) was added. The plates were incubated, washed and PNPP substrate added as described in Example 5. […]

In test [2] the test system is ^2651 IgG (coating antibody). Description: Direct assay (competition with 2651-HRP for immobilized ^2651 IgG coating antibody). Conditions: for IC50: 2651-HRP label, absorbance at 450 nm; for Cross reactivity, RH2651: relative to RH2651; for Cross reactivity, RH5992: relative to RH5992. Format: binding, rabbit.
Description: as §1, §2, §3, §4, §5
A microplate was coated with ^2651 IgG. Starting with column 1, 100 μl of 10 μg/ml ^2651 IgG were added to each well and 1:2 serial dilutions made across the plate. The plate was sealed and stored at 4° C. until ready to use. After emptying, the plate was washed with 0.01% Tween 20 in PBS and blocked with 1% BSA in PBS for about 1 hour at room temperature. After blocking, the plate was emptied and 150 μl PBS added to each well. Then 50 μl of 2651-HRP dilutions were added down the plate starting with 10 μg/ml and continuing with 1:2 dilutions down the plate. After a 1 hour room temperature incubation, the plate was washed as before and 150 μl 1-Step® Slow-TMB (peroxidase substrate from Pierce Chemical Co.) was added to each well. After one hour development, 150 μl of 1N H2 SO4 was added to stop the reaction and the absorbance of each well measured at 450 nm with the Dynatech MR5000 Microplate Reader. Controls included wells with no coating antibody and wells in which no 2651-HRP were added. A ^2651 IgG coating antibody concentration of 0.625 μg/ml and a 2561-HRP concentration of 1.25 μg/ml were determined to be the optimum concentration for use with 1-Step® Slow-TMB substrate.
The wells of a microplate were coated with 100 μl each of 0.625 μg/ml ^2651 IgG. One row was left uncoated as a control. The plate was kept at 4° C. overnight. The following day the plate was washed with 0.01% Tween 20 polysorbate in PBS and blocked with 1% BSA in PBS for at least 30 minutes. Standard solutions of RH5992, RH2651, RH2703, and RH2485 were made from 1 mg/ml stock solutions. Standard solutions of RH0345 were prepared from a 0.1 ng/ml, 0.5 ng/ml, 1 ng/ml, 5 ng/ml, 10 ng/ml, 50 ng/ml, and 100 ng/ml. After the blocking lo solution was emptied, 150 μl of the standards were added to the appropriate wells. For the zero control 150 μl of PBS was added. After a 45 minute incubation at room temperature, 50 μl of 1.25 μg/ml 2651-HRP were added to each well and the plate agitated to mix the contents. […] After incubation for 45 minutes at room temperature, the plate was washed as before and 150 μl 2651-HRP was added to each well and the plate agitated to mix the contents. […] After incubation for 45 minutes at room temperature, the plate was washed as before and 150 μl Step 1® Slow TMB added to each well. After 2 hours at room temperature, 150 μl 1N H2 SO4 was added to each well and the absorbance read at 450 nm with the Dynatech MR5000 Microplate Reader.
FIG. 16a illustrates a typical curve generated from the assay. The linear portion of the curve is visualized between 0.01 ng/ml and 10 ng/ml. A typical standard curve in the linear range of the assay is illustrated by FIG. 16b using inverse absorbances to generate a positive slope. The limit of detection was calculated as 0.096 ng/ml and the sensitivity calculated as 0.005 ng for RH5992.

Structures are written as SMILES. Values after ≈ are worked out from the molar mass of the structure shown.

The term IC50 denotes the concentration that inhibits the measured activity by half. As to `COc1cccc(C(=O)NN(C(=O)c2cc(C)cc(C)c2)C(C)(C)C)c1C` [RH2485], in test [1], the IC50 is 0.05 ng/mL. Further, in test [2], the IC50 is 4.64 ng/mL (≈ 0.0126 µM); the “Cross reactivity, RH2651” value is 25%; the “Cross reactivity, RH5992” value is given as 78.4%.
Regarding `Cc1cc(C)cc(C(=O)N(NC(=O)c2ccc(CC(=O)O)cc2)C(C)(C)C)c1` [RH2703], in test [1], the IC50 amounted to 1.13 ng/mL and the Cross reactivity is 54%. In test [2], the IC50 came out at 2.10 ng/mL (≈ 0.00549 µM); the “Cross reactivity, RH2651” value came to 56%; the “Cross reactivity, RH5992” value turned out to be 173%.
For `CCc1ccc(C(=O)NN(C(=O)c2cc(C)cc(C)c2)C(C)(C)C)cc1` [RH5992] the same measures were 0.61 ng/mL, 100%, 3.64 ng/mL (≈ 0.0103 µM), 32% and 100%.
The matching figures for `Cc1cc(C)cc(C(=O)N(NC(=O)c2ccc(C(=O)O)cc2)C(C)(C)C)c1` [RH2651]: 1.59 ng/mL, 38%, 1.17 ng/mL (≈ 0.00318 µM), 100% and 311%.
Turning to `CC(C)(C)N(NC(=O)c1ccc(Cl)cc1)C(=O)c1ccccc1` [RH0345], in test [1], the IC50 is 6.5 ng/mL and the Cross reactivity stood at 9%. Moreover, in test [2], the IC50 turned out to be 16.94 ng/mL (≈ 0.0512 µM); the “Cross reactivity, RH2651” value was 6.9%; the “Cross reactivity, RH5992” value was determined as 21.5%.
